For this test, the system named is Vasopressin V2. Briefly: Vasopressin V2 agonist effects of test compounds in normal conscious water-loaded rats. The conditions noted are these: Sprague-Dawley (CD) rats, oral 10 mg/kg, urine collected for four hours; for Osmolality (% Increase): change in osmolality as percent of control; for Urine Volume (% decrease): vs. control. It counts as in vivo. As for the experimental part:
Vasopressin V2 Agonist Effects of Test Compounds in Normal Conscious Water-Loaded Rats:
On the day of test, rats were placed individually into metabolic cages equipped with devices to separate the feces from the urine and containers for collection of urine. Test compound or reference agent was given at an oral dose of 10 mg/kg in a volume of 10 ml /kg. […] Thirty minutes after dosing the test compound, rats were gavaged with water at 30 ml /kg into the stomach using a feeding needle. During the test, rats were not provided with water or food. Urine was collected for four hours after dosing of the test compound. At the end of four hours, urine volume was measured. […] Determinations of Na^+, K^+ and Cl^- ion were carried out using ion specific electrodes in a Beckman SYNCHRON EL-ISE Electrolyte System analyzer. […] In the screening test, two rats were used for each compound. If the difference in the urine volume of the two rats was greater than 50%, a third rat was used.

On to `O=C(c1ccc(-c2ccn(C(=O)c3ccccc3-c3ccccc3)n2)cc1)N1Cc2cccn2Cc2ccccc21` [Example 40, {4-[1-(Biphenyl-2-carbonyl)-1H-pyrazol-3-yl]-phenyl}-(5H,11H-pyrrolo[2,1-c][1,4]benzodiazepin-10-yl)-methanone], for which the “Osmolality (% Increase)” value is recorded as 183% and the “Urine Volume (% decrease)” value is recorded as 46%.
In the case of `O=C(c1ccc(-c2ccn(C(=O)c3ccccc3-c3ccc(C(F)(F)F)cc3)n2)cc1)N1Cc2cccn2Cc2ccccc21` [Example 41, {4-[1-(4'-Trifluoromethyl-biphenyl-2-carbonyl)-1H-pyrazol-3-yl]-phenyl}-(5H,11H-pyrrolo[2,1-c][1,4]benzodiazepin-10-yl)-methanone], the “Osmolality (% Increase)” value was found to be 240% and the “Urine Volume (% decrease)” value is given as 69%.
For `Cc1n[nH]c(-c2ccc(C(=O)N3Cc4cccn4Cc4ccccc43)cc2)n1` [Example 50, [4-(5-Methyl-2H-[1,2,4]triazol-3-yl)-phenyl]-(5H,11H-pyrrolo[2,1-c][1,4]-benzodiazepin-10-yl)-methanone] the same measures were 223% and 53%.
Regarding `Cc1nc(-c2ccc(C(=O)N3Cc4cccn4Cc4ccccc43)cc2)n(C)n1` [Example 51, [4-(2,5-Dimethyl-2H-[1,2,4]triazol-3-yl)-phenyl]-(5H,11H-pyrrolo[2,1-c]-[1,4]benzodiazepin-10-yl)-methanone], the “Urine Volume (% decrease)” value is 72%.
`Cc1noc(-c2ccc(C(=O)N3Cc4cccn4Cc4ccccc43)cc2)n1` [Example 52, [4-(3-Methyl[1,2,4]oxadiazol-5-yl)-phenyl]-(5H,11H-pyrrolo-[2,1-c][1,4]-benzodiazepin-10-yl)-methanone]: the “Osmolality (% Increase)” value came to 261% and the “Urine Volume (% decrease)” value is on record as 66%.
For `Cn1cc(-c2ccc(C(=O)N3Cc4cccn4Cc4ccccc43)cc2)cn1` [Example 55, [4-(1-Methyl-1H-pyrazol-4-yl)-phenyl]-(5H,11H-pyrrolo[2,1-c][1,4]-benzodiazepin-10-yl)-methanone] the same measures were 164% and 80%.
For `Cn1cc(-c2ccc(C(=O)N3Cc4cccn4Cc4ccccc43)cn2)cn1` [Example 57, [6-(1-Methyl-1H-pyrazol-4-yl)-pyridin-3-yl]-(5H,11H-pyrrolo[2,1-c][1,4]-benzodiazepin-10-yl)-methanone] the same measures were 288% and 77%.
On the same counts, the results for `O=C(c1ccc(-n2cccn2)cc1)N1Cc2cccn2Cc2ccccc21` [Example 58, [4-(Pyrazol-1-yl)-phenyl]-(5H,11H-pyrrolo[2,1-c][1,4]benzodiazepin-10-yl)-methanone] are 324% and 49%.
Take `Cc1ccn(-c2ccc(C(=O)N3Cc4cccn4Cc4ccccc43)cc2)n1` [Example 59, [4-(3-Methyl-pyrazol-1-yl)-phenyl]-(5H,11H-pyrrolo[2,1-c][1,4]-benzodiazepin-10-yl)-methanone]: the “Osmolality (% Increase)” value was determined as 607% and the “Urine Volume (% decrease)” value is on record as 80%.
On the same counts, the results for `Cc1cnn(-c2ccc(C(=O)N3Cc4cccn4Cc4ccccc43)cc2)c1` [Example 60, [4-(4-Methyl-pyrazol-1-yl)-phenyl]-(5H,11H-pyrrolo[2,1-c][1,4]-benzodiazepin-10-yl)-methanone] are 165% and 54%.
For `Cc1cc(C)n(-c2ccc(C(=O)N3Cc4cccn4Cc4ccccc43)cc2)n1` [Example 61, [4-(3,5-Dimethyl-pyrazol-1-yl)-phenyl]-(5H,11H-pyrrolo[2,1-c][1,4]-benzodiazepin-10-yl)-methanone] the same measures were 245% and 59%.
On the same counts, the results for `O=C(c1ccc(-n2ccc(C(F)(F)F)n2)cc1)N1Cc2cccn2Cc2ccccc21` [Example 62, (5H,11H-Pyrrolo[2,1-c][1,4]benzodiazepin-10-yl)-[4-(3-trifluoromethyl-pyrazol-1-yl)-phenyl]-methanone] are 150% and 22%.
Consider `O=C(c1ccc(-n2ccnc2)cc1)N1Cc2cccn2Cc2ccccc21` [Example 63, [4-(Imidazol-1-yl)-phenyl]-(5H,11H-pyrrolo[2,1-c][1,4]benzodiazepin-10-yl)-methanone], for which the “Osmolality (% Increase)” value is given as 214% and the “Urine Volume (% decrease)” value came to 27%.
For `Cc1cn(-c2ccc(C(=O)N3Cc4cccn4Cc4ccccc43)cc2)cn1` [Example 64, [4-(4-Methyl-imidazol-1-yl)-phenyl]-(5H,11H-pyrrolo[2,1-c][1,4]-benzodiazepin-10-yl)-methanone], the “Osmolality (% Increase)” value was found to be 349% and the “Urine Volume (% decrease)” value is recorded as 79%.
For `Cn1ccc(-c2ccc(C(=O)N3Cc4cccn4Cc4ccccc43)c(Cl)c2)n1` [Example 71, [2-Chloro-4-(1-methyl-1H-pyrazol-3-yl)-phenyl]-(5H,11H-pyrrolo[2,1-c]-[1,4]benzodiazepine-10-yl)-methanone] the same measures were 264% and 84%.
On the same counts, the results for `N#Cc1ccc(C(=O)N2Cc3cccn3Cc3ccccc32)c(Cl)c1` [Example 77, 3-Chloro-4-(5H,11H-pyrrolo[2,1-c][1,4]benzodiazepine-10-carbonyl)-benzonitrile] are 90% and 13%.
For `O=C(O)c1ccc(C(=O)N2Cc3cccn3Cc3ccccc32)c(Cl)c1` [Example 78, 3-Chloro-4-(5H,11H-Pyrrolo[2,1-c][1,4]benzodiazepine-10-carbonyl)-benzoic acid] the same measures were 115% and 21%.
As to `NC(=O)c1ccc(C(=O)N2Cc3cccn3Cc3ccccc32)c(Cl)c1` [Example 79, 3-Chloro-4-(5H,11H-pyrrolo[2,1-c][1,4]benzodiazepine-10-carbonyl)-benzamide], the “Osmolality (% Increase)” value was 123% and the “Urine Volume (% decrease)” value was 38%.
For `Cc1n[nH]c(-c2ccc(C(=O)N3Cc4cccn4Cc4ccccc43)c(Cl)c2)n1` [Example 81, [2-Choro-4-(5-methyl-2H-[1,2,4]triazol-3-yl)phenyl]-(5H,11H-pyrrolo[2,1-c][1,4]benzodiazepine-10-carbonyl)-methanone] the same measures were 490% and 82%.
For `O=C(c1ccc(-c2ncn[nH]2)cc1Cl)N1Cc2cccn2Cc2ccccc21` [Example 83, [2-Chloro-4-(2H-1,2,4-triazol-3-yl)-phenyl]-(5H,11H-pyrrolo[2,1-c][1,4]-benzodiazepin-10-yl)-methanone] the same measures were 442% and 85%.
For `Cn1ncnc1-c1ccc(C(=O)N2Cc3cccn3Cc3ccccc32)c(Cl)c1` [Example 84, [2-Chloro-4-(2-methyl-2H-[1,2,4]triazol-3-yl)-phenyl]-(5H,11H-pyrrolo [2,1-c][1,4]benzodiazepin-10-carbonyl)-methanone] the same measures were 291% and 56%.
As for `Cc1nc(-c2ccc(C(=O)N3Cc4cccn4Cc4ccccc43)c(Cl)c2)n(C)n1` [Example 85, 4-[(2,5-Dimethyl-2H-[1,2,4]triazol-3-yl)-2-chloro-phenyl]-(5H,11H-pyrrolo[2,1-c][1,4]benzodiazepin-10-carbonyl)-methanone], the “Osmolality (% Increase)” value came out at 436% and the “Urine Volume (% decrease)” value is reported as 76%.
For `O=C(c1ccc(-c2nnn[nH]2)cc1Cl)N1Cc2cccn2Cc2ccccc21` [Example 86, [2-Chloro-4-(1H-tetrazol-5-yl)-phenyl]-(5H,11H-pyrrolo[2,1-c][1,4]benzodiazepin-10-yl)-methanone], the “Osmolality (% Increase)” value is 86% and the “Urine Volume (% decrease)” value turned out to be 5%.
Consider `Cc1ccn(-c2ccc(C(=O)N3Cc4ccc(CN(C)C)n4Cc4ccccc43)c(Cl)c2)n1` [Example 87, [2-Chloro-4-(3-methyl-pyrazol-1-yl)-phenyl]-(3-dimethylaminomethyl-5H,11H-pyrrolo[2,1-c][1,4]benzodiazepin-10-yl)-methanone], for which the “Osmolality (% Increase)” value is 214% and the “Urine Volume (% decrease)” value was 71%.
On the same counts, the results for `Cc1ccn(-c2ccc(C(=O)N3Cc4ccc(Br)n4Cc4ccccc43)c(Cl)c2)n1` [Example 88, (3-Bromo-5H,11H-pyrrolo[2,1-c][1,4]benzodiazepin-10-yl)-[2-chloro-4-(3-methyl-pyrazol-1-yl)-phenyl]-methanone] are 226% and 68%.
On the same counts, the results for `Cc1ccn(-c2ccc(C(=O)N3Cc4cccn4Cc4ccccc43)c(Br)c2)n1` [Example 90] are 413% and 61%.
For the molecule `O=C(c1ccc(F)cc1F)N1Cc2cccn2Cc2ccccc21` [Example 91, (2,4-Difluoro-phenyl)-(5H,11H-pyrrolo[2,1-c][1,4]benzodiazepin-10-yl)-methanone], the “Osmolality (% Increase)” value was determined as 69% and the “Urine Volume (% decrease)” value was determined as 22%.
For `Cc1ccn(-c2ccc(C(=O)N3Cc4cccn4Cc4ccccc43)c(F)c2)n1` [Example 92, [2-Fluoro-4-(3-methyl-pyrazol-1-yl)-phenyl]-(5H,11H-pyrrolo[2,1-c][1,4]-benzodiazepin-10-yl)-methanone] the same measures were 454% and 69%.

These data come from EP1000062B1, “TRICYCLIC VASOPRESSIN AGONISTS” (Wyeth, priority 1997, dated 1999).
